How the values were obtained:
B16 cells [1] = assay: MTT assay for cell viability; assay type: cell-based; details: under the selected concentrations
Description: (§1) B16 melanoma cells (PNS-MC-36) were purchased from Procell Life Science & Technology Co., Ltd. (Wuhan, China).
A modified MTT method was applied to screen cell viability. B16 cells were cultured in 96-well plates and mixed with different concentrations of the sample after 24 h. After having been incubated for another 72 h, MTT solution was added to form formazan, which was followed by dissolved in 100 μL DMSO, and then the absorbance (OD) was measured at 490 nm. Cell viability was calculated as percent changes relative to control.

[2] = ABTS radical scavenging activity assay; details: for Inhibitory rate (%), ABTS (Table S4): Table S4, concentration not given; for ABTS Inhibitory Rate (%): concentration 200 μM, "-" not active; for IC50: converted from μg/mL
Description: The ABTS radical scavenging activity was examined as previously reported at room temperature (25 °C). Briefly, 160 μL sample in DMSO with different concentrations (800, 400, 200, 100, 50, 25 μM) was reacted with 480 μL ABTS reagent in a 1.5 mL centrifuge tube away from light for 6 min. Next, 200 μL of the mixture was taken out and transferred into a 96-well plate, which was used for measuring the absorbance by a microplate reader at 734 nm (ODsample). The control (ODcontrol) and blank (ODblank) were, respectively, established from the mixture solutions of the sample in DMSO and water and the mixture solution of DMSO and ABTS reagent. Trolox was the positive control, with the same concentration with compounds. The ABTS radical scavenging capacity was calculated as following:ABTS radical scavenging capacity (%) = [1 − (ODsample − ODcontrol)/ODblank] × 100%

[3] = DPPH radical scavenging activity assay; details: for Inhibitory rate (%), DPPH (Table S4): Table S4, concentration not given; for DPPH Inhibitory Rate (%): concentration 200 μM; for IC50: converted from μg/mL
Description: The DPPH radical scavenging capacity was measured according to the following reference at room temperature (25 °C). Briefly, 320 μL sample in DMSO with different concentrations (400, 200, 100, 50, 25, 12.5 μM) was reacted with 320 μL DPPH reagent (0.1 mM) in 1.5 mL centrifuge tube away from light for 30 min. Next, 200 μL of the mixture was transferred into a 96-well plate, which was used for measuring the absorbance at 517 nm (ODsample). A control (ODcontrol) and blank (ODblank) were, respectively, established from the mixture solutions of the sample in DMSO and ethanol and the mixture solution of DMSO and DPPH reagent. Vitamin C was the positive control, with the same concentration as the compounds. The DPPH radical scavenging capacity was calculated according to the following:DPPH radical scavenging capacity (%) = [1 − (ODsample − ODcontrol)/ODblank] × 100%

B16 cells [4] = assay: Measurement of melanin produced by B16 cells; assay type: cell-based; details: 150 μM, compared with positive control kojic acid; concentration dependent
Description: as §1
B16 cells were seeded into 96-well plates with […], and incubated at 37 °C, 5% CO2, and 90% humidity for 24 h. Having removed the supernatant, 100 μL samples with different concentrations were added. Medium without the sample was added as the blank. After incubation for another 72 h, the cells were dissolved in 100 μL of 2 N NaOH, and then incubated at 80 °C. The absorbance (OD) was measured at 450 nm.

[5] = DPPH radical scavenging activity assay; details: concentration 100 μg/mL
[6] = ABTS radical scavenging activity assay; details: concentration 100 μg/mL

Row | SMILES | Toxicity to B16 cells (B16 cells [1]) | ABTS IC50 ± SD [2] [µg/mL] | Inhibitory rate (%), ABTS (Table S4) [2] [%] | ABTS Inhibitory Rate (%) [2] [%] | Inhibitory rate (%), DPPH (Table S4) [3] [%] | DPPH Inhibitory Rate (%) [3] [%] | Melanin production inhibition activity in B16 cells (B16 cells [4]) | DPPH IC50 ± SD [3] [µg/mL] | IC50 [2] [µM] | IC50 [3] [µM] | DPPH free radical scavenging rate [5] [%] | ABTS free radical scavenging rate [6] [%]
1 | COc1cc(CC(O)C(O)CC2OC(CC(O)C(O)Cc3ccc(O)c(OC)c3)C3C(c4cc(OC)c(O)c(OC)c4)OC(c4cc(OC)c(O)c(OC)c4)C23)ccc1O (stereo not shown) [Compound 1, Aloxy A] | no toxicity | 39.59 ± 0.53 | 91.09 ± 0.55 | 91.09 ± 0.55 | 50.74 ± 2.31 | 50.74 ± 2.31 | stronger inhibitory effects than positive control (kojic acid) | – | – | – | – | –
2 | COC(=O)C1OC(Oc2c(-c3ccc(O)cc3)oc3cc(O)cc(O)c3c2=O)C(OC2OC(C)C(O)C(O)C2O)C(OC(C)=O)C1OC(C)=O [Compound 2, Kaempferol 3-O-α-L-rhamnosyl-(1 → 2)-(3″,4″-diacetyl-β-D-glucuronatemethyl ester)] | no toxicity | 6.42 ± 0.12 | 93.04 ± 0.10 | 93.04 ± 0.10 | 22.77 ± 1.85 | 22.77 ± 1.85 | stronger inhibitory effects than positive control (kojic acid) | – | – | – | – | –
3 | COc1cc(CCC(=O)CCCCc2ccccc2)ccc1O [Compound 6, yakuchinone A] | – | – | 4.42 ± 0.12 | 4.42 ± 0.12 | 18.77 ± 1.28 | 18.77 ± 1.28 | – | – | – | – | – | –
4 | COc1cc(CCC(=O)CC(O)CCc2ccc(O)c(OC)c2)ccc1O (stereo not shown) [Compound 7, hexahydrocurcumin] | no toxicity | 13.17 ± 0.18 | 91.09 ± 0.41 | 91.09 ± 0.41 | 35.80 ± 0.77 | 35.80 ± 0.77 | stronger inhibitory effects than positive control (kojic acid) | – | – | – | – | –
5 | COc1cc(CC/C=C/C(=O)CCc2ccc(O)c(OC)c2)ccc1O [Compound 8, gingerenone A] | – | 36.06 ± 1.07 | 90.81 ± 0.24 | 90.81 ± 0.24 | 52.84 ± 2.47 | 52.84 ± 2.47 | – | – | – | – | – | –
6 | COC(=O)[C@H]1O[C@@H](Oc2c(-c3ccc(O)cc3)oc3cc(O)cc(O)c3c2=O)[C@H](O[C@@H]2O[C@@H](C)[C@H](O)[C@@H](O)[C@H]2O)[C@@H](O)[C@@H]1O [Compound 9, kaempferol 3-O-α-L-rhamnosyl-(1 → 2)-(β-D-glucuronatemethyl ester)] | – | 6.20 ± 0.05 | 92.39 ± 0.27 | 92.39 ± 0.27 | 43.07 ± 3.99 | 43.07 ± 3.99 | – | – | – | – | – | –
7 | COc1ccc(-c2oc3cc(OC)cc(O)c3c(=O)c2O)cc1 [Compound 12, 3,5-dihydroxy-4′,7-dimethoxyflavone] | – | 8.55 ± 0.08 | 75.07 ± 0.46 | 75.07 ± 0.46 | 79.80 ± 2.02 | 79.80 ± 2.02 | – | 23.15 ± 3.24 | – | – | – | –
8 | COc1cc(O)c2c(=O)cc(-c3ccccc3)oc2c1 [Compound 13, tectochrysin] | – | 20.81 ± 0.29 | 91.93 ± 1.68 | 91.93 ± 1.68 | 18.61 ± 0.62 | 18.61 ± 0.62 | – | – | – | – | – | –
9 | O=C1C[C@@H](c2ccccc2)Oc2cc(O)cc(O)c21 [Compound 14, pinocembrin] | – | 27.73 ± 0.69 | 78.11 ± 0.32 | 78.11 ± 0.32 | 27.53 ± 1.96 | 27.53 ± 1.96 | – | – | – | – | – | –
10 | O=c1ccc2c(O)cc3c(c2o1)C[C@@H](O)[C@@H](c1ccc(O)c(O)c1)O3 [Compound 15, isoepiphyllocoumarin] | – | 30.57 ± 0.93 | 71.48 ± 0.32 | 71.48 ± 0.32 | 36.54 ± 3.60 | 36.54 ± 3.60 | – | – | – | – | – | –
11 | O=c1ccc2c3c(c(O)cc2o1)C[C@@H](O)[C@@H](c1ccc(O)c(O)c1)O3 [Compound 16, epiphyllocoumarin] | – | 8.49 ± 0.06 | 92.51 ± 0.27 | 92.51 ± 0.27 | 76.93 ± 1.34 | 76.93 ± 1.34 | – | 7.29 ± 0.60 | – | – | – | –
12 | OC[C@H]1O[C@@H](OCc2ccccc2)[C@H](O)[C@@H](O)[C@@H]1O [Compound 17, benzyl O-β-D-glucopyranoside] | – | – | – | – | 25.74 ± 1.49 | 25.74 ± 1.49 | – | – | – | – | – | –
13 | COc1cc(O)cc(OC)c1O[C@@H]1O[C@H](CO)[C@@H](O)[C@H](O)[C@H]1O [Compound 19, 4-hydroxy-2,6-dimethoxyphenyl-β-D-glucoside] | – | 17.50 ± 0.23 | 92.57 ± 0.10 | 92.57 ± 0.10 | 60.59 ± 0.17 | 60.59 ± 0.17 | – | 114.44 ± 0.14 | 52.9 | 345 | – | –
14 | COc1cc(O)ccc1O[C@@H]1O[C@H](CO)[C@@H](O)[C@H](O)[C@H]1O [Compound 20, 1,4-dihydroxyl-3-methoxyphenyl-4-O-β-D-glucopyranoside] | – | 8.20 ± 0.14 | 92.80 ± 0.31 | 92.80 ± 0.31 | 84.06 ± 1.79 | 84.06 ± 1.79 | – | 23.21 ± 2.88 | 27.2 | 77 | – | –
15 | OC[C@H]1O[C@@H](Oc2ccccc2O)[C@H](O)[C@@H](O)[C@@H]1O [Compound 21, pyrocatechol 1-O-β-D-glucopyranoside] | – | 46.03 ± 0.27 | 92.57 ± 0.27 | 92.57 ± 0.27 | 31.39 ± 3.99 | 31.39 ± 3.99 | – | ≥ 200 | 169 | – | – | –
16 | COc1ccc([C@H]2OC[C@H]3[C@@H]2CO[C@@H]3c2ccc(OC)c(O[C@@H]3O[C@H](CO)[C@@H](O)[C@H](O)[C@H]3O)c2)cc1O [Compound 22, 4,4′-dimethoxy-3′-hydroxy-7,9′:7′,9-diepoxylignan-3-O-β-D-glucopyranoside] | – | 33.32 ± 0.29 | 91.51 ± 0.21 | 91.51 ± 0.21 | 36.91 ± 2.04 | 36.91 ± 2.04 | – | – | – | – | – | –
17 | O=C1O[C@H]([C@@H](O)CO)C(O)=C1O [Vitamin C, reference compound] | – | – | – | – | 85.44 ± 0.34 | 85.44 ± 0.34 | – | 6.20 ± 0.41 | – | – | 72.7 | –
18 | Cc1c(C)c2c(c(C)c1O)CCC(C)(C(=O)O)O2 (stereo not shown) [trolox, Trolox, reference compound] | – | 31.61 ± 0.60 | 92.69 ± 0.03 | 92.69 ± 0.03 | – | – | – | – | – | – | – | 91.6

Source: PMC11727410, “Identification of Chemical Constituents from Leaves and Stems of Alpinia oxyphylla: Potential Antioxidant and Tyrosinase Inhibitory Properties” (Antioxidants, 2024)
